Test results published in PMC5700043, “Structural insights into substrate and inhibitor binding sites in human indoleamine 2,3-dioxygenase 1” (Nature Communications, 2017).

How the values were obtained:
[1] = target: T1, human indoleamine 2,3-dioxygenase 1 (hIDO1) (Homo sapiens, UniProt P14902, F270G); assay: X-ray crystal structure ([…] Å); activity titration (inhibition); assay type: biochemical
T1 construct: gene IDO1

[2] = target: T2, human indoleamine 2,3-dioxygenase 1 (hIDO1) (Homo sapiens, UniProt P14902); assay: X-ray crystal structure ([…] Å); activity titration; assay type: biochemical
T2 construct: gene IDO1
T2 sequence (P14902 whole entry): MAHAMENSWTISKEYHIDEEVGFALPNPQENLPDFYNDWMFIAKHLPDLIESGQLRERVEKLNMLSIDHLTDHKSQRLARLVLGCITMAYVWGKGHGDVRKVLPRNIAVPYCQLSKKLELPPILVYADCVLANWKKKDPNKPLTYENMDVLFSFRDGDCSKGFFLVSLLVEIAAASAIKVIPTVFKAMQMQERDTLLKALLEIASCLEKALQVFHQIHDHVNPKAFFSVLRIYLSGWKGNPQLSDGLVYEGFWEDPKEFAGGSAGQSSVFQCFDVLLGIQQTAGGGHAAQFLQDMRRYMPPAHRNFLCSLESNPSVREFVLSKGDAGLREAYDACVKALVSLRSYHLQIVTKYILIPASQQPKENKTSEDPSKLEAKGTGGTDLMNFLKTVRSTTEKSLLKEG

[3] = target: T1, human indoleamine 2,3-dioxygenase 1 (hIDO1); assay: X-ray crystal structure ([…] Å), two Trp bound; steady-state activity; assay type: binding
[4] = target: T2, human indoleamine 2,3-dioxygenase 1 (hIDO1); assay: X-ray crystal structure ([…] Å); steady-state activity; assay type: binding

T1 sequence (P14902 11-403 F270G): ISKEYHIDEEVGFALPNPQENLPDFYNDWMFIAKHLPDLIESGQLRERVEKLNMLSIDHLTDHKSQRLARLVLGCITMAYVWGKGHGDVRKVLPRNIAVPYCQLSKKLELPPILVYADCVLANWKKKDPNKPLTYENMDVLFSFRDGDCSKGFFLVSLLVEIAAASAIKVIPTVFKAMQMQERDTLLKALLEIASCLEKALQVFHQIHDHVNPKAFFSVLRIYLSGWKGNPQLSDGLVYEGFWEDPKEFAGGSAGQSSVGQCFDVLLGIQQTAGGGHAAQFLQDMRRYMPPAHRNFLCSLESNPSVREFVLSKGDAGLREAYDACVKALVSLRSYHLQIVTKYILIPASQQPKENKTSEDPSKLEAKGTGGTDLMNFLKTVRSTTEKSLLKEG

| SMILES | Kd [1] | Kd [2] | X-ray crystal structure (3.03 Å), two Trp bound; steady-state activity [3] | X-ray crystal structure (2.40 Å); steady-state activity [4] |
| --- | --- | --- | --- | --- |
| OCCc1c[nH]c2ccccc12 [IDE, 3-indole ethanol] | ~100 µM | ~230 µM | – | – |
| N[C@@H](Cc1c[nH]c2ccccc12)C(=O)O [Trp] | – | – | Crystal structure of the F270G-CN-Trp complex in a two Trp-bound state, where both the Sa and Si sites are occupied | The substrate Trp binds in the distal heme pocket, which is enclosed by the JK-Loop^C and the DE-Loop |
